Assay [1] addresses wild type MLL1 five-member complex (MLL1-5C) (Homo sapiens, UniProt Q03164). In words: MLL1 Flashplate assay. It is filed as biochemical. The note with it: 2.5 nM MLL1-5C, 0.5 μM 3H-SAM, 1 μM H3K4me0; read-out: MLL1 flash plate. The protocol:
MLL1 Flashplate Assay To assess the compound potency in MLL1 Flashplate assay, compounds were serially diluted 3-fold in DMSO to obtain a total of twelve concentrations. Then the test compounds at each concentration (250 nL of each) were transferred by Mosquito into Corning #3675 384-well plate. Solutions (15 μL) of 4.2 nM wild type MLL1 five-member complex (MLL1-5C) in the assay buffer (20 mM Tris-HCl, pH8.0, 0.01% Tween 20, 1 mM DTT, 0.01% BSA) were added to the wells. A 10 μL solution of 2.5 μM of the peptide substrate H3K4me0 (histone H3[1-21]-Biotin) and 1.25 μM ^3H-SAM in the reaction buffer was then added to initiate each reaction. The final components in the reaction solution include 2.5 nM MLL1-5C, 0.5 μM ^3H-SAM, and 1 μM H3K4me0 with varying concentration of the compounds. A positive control consisted of 2.5 nM MLL1-5C, 0.5 μM ^3H-SAM, and 1 μM substrate in the absence of the test compound, and a negative control consisted of 0.5 μM ^3H-SAM, and 1 μM substrate only. Each reaction was incubated at rt for 90 min, then stopped by addition of 5 μL per of quench solution (0.5 mM SAM in assay buffer). 25 μL of each reaction solution was transferred to FlashPlate streptavidin 384-well microplate (PerkinElmer). After at least 1 h incubation at rt, the wells were washed three times with 0.1% Tween-20 in dH2O using the BioTek plate washer. The plates were then read in MicroBeta (PerkinElmer). The radioactive readouts were then normalized based on the values coming from the positive and negative controls to give percent enzyme activities. The data were then fit to a dose response equation using the program Helios to get the IC50 values of the test compounds.

For assay [2], the target named is wild type MLL1 four-member complex (MLL1-4C) (Homo sapiens, UniProt Q03164). In words: MLL1 LC-MS assay. Type of assay: biochemical. The note with it: 30 nM MLL1-4C, 2.5 μM SAM, 10 μM H3K4me0; SAH production by LC-MS/MS; read-out: MLL1 LCMS. A digest of the protocol: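 Compound (8 or 12 points, 3-fold) preincubated 20 min with MLL1-4C and SAM; reaction started with H3K4me0 biotinylated peptide (final 30 nM enzyme, 2.5 μM SAM, 10 μM substrate, pH 8.0), 120 min at rt. TFA quench with d4-SAH; SAH quantified by LC-MS/MS, normalised to controls and fitted for IC50.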

For assay [3], the system named is H3K4me3 in MV4-11 cells. In words: MV4-11 H3K4Me3 cellular ELISA assay. Type of assay: cell-based. The note with it: Homo sapiens, 48 hours, H3K4me3 signal normalized to total H3.
For assay [4], the system named is MV4-11 cells. In words: MV4-11 6-day cell growth CTG (CellTiter-Glo) assay. It is filed as cell-based. The note with it: Homo sapiens, 144 h, 6 days. The procedure:
MV4-11 6-Day Cell Growth CTG (CellTiter-Glo) Assay
Acute myeloid leukemia cell MV4-11 (ATCC® CRL-9591™) was cultured with RPMI 1640 medium (Thermo Fisher Scientific, cat #11875) supplemented with 10% FBS (Thermo Fisher Scientific, cat #10099141) in humidified incubator at 37° C., 5% CO2. To assess the effect of MLL1 inhibition on cell growth, the compound of the present invention was dissolved in DMSO and serially diluted at 1:3 for 12 points starting from 10 mM then 200 nL for the replicate of each dose per well was dispensed to Viewplate-384 Black (Perkin Elmer). Exponentially growing MV4-11 cells were seeded at the density of 300 cells per well in 40 μL to the plate, so the final compound working concentration starts from 50 μM. After 6 days, 40 μL CellTiter-Glo (Promega, cat #G7573) was added into the cell culture well and luminescence was read with Envision (Perkin Elmer) to determine the viable cells. The percentage inhibition was calculated against the samples treated with DMSO only and the data were used for dose response curve fitting in GraphPad Prism to get the IC50 of representative compound of present invention, which reflects the inhibition of MLL1 activity.

Each structure is given as a SMILES string.

Consider five molecules from patent publication US12371434B2, “MLL1 inhibitors and anti-cancer agents” (NOVARTIS AG, priority 2020, dated 2025).

For the molecule `Nc1ncnc2c1ncn2Cc1c(OCCC[C@@H](N)C(=O)NC2CC2)ccc(Cl)c1Cl` [Example 42, (R)-2-amino-5-(2-((6-amino-9H-purin-9-yl)methyl)-3,4-dichlorophenoxy)-N-cyclopropylpentanamide], the IC50 is below 60 nM in assay [1], below 50 nM in assay [2], below 1900 nM in assay [3] and below 2000 nM in assay [4].
The corresponding values for `CS(=O)(=O)NC(=O)[C@H](N)CCCOc1ccc(Cl)c(Cl)c1Cn1cnc2c(N)ncnc21` [Example 43, (R)-2-amino-5-(2-((6-amino-9H-purin-9-yl)methyl)-3,4-dichlorophenoxy)-N-(methylsulfonyl)pentanamide] are below 60 nM, below 50 nM, below 1900 nM and below 2000 nM.
The matching figures for `Nc1ncnc2c1ncn2Cc1c(OCCC[C@@H](N)c2nc[nH]n2)ccc(Cl)c1Cl` [Example 48, (R)-9-(6-(4-amino-4-(1H-1,2,4-triazol-3-yl)butoxy)-2,3-dichlorobenzyl)-9H-purin-6-amine]: below 60 nM, below 50 nM, below 1900 nM and below 2000 nM.
The corresponding values for `Cc1nnc([C@H](N)CCCOc2ccc(Cl)c(Cl)c2Cn2cnc3c(N)ncnc32)s1` [Example 50, (R)-9-(6-(4-amino-4-(5-methyl-1,3,4-thiadiazol-2-yl)butoxy)-2,3-dichlorobenzyl)-9H-purin-6-amine] are below 60 nM, below 50 nM, above 3000 nM and above 3000 nM.
In the case of `CN(C)C[C@H](N)CCCOc1ccc(Cl)c(Cl)c1Cn1cnc2c(N)ncnc21` [Example 53, (R)-5-(2-((6-amino-9H-purin-9-yl)methyl)-3,4-dichlorophenoxy)-N^1,N^1-dimethylpentane-1,2-diamine], the IC50 in assay [1] is above 100 nM; in assay [2], above 100 nM; in assay [3] it was above 3000 nM; in assay [4], above 3000 nM.
